Experiments:
Test in all cases: radioligand saturation binding, CHO membranes
[1] = target: MOR-1 (untagged) (Mus musculus, UniProt P42866)
[2] = target: MOR-1-PK (Mus musculus, UniProt P42866)
[3] = target: MOR-1O (untagged) (Mus musculus, UniProt P42866)
[4] = target: MOR-1O-PK (Mus musculus, UniProt P42866)
[5] = target: MOR-TR-PK (Mus musculus, UniProt P42866, DEL387-398)

## O=C(N[C@@H]1CC[C@@]2(O)[C@H]3Cc4ccc(O)c5c4[C@@]2(CCN3CC2CC2)[C@H]1O5)c1cccc(I)c1 [[^125I]IBNtxA]
[1]
  Kd: 0.13 ± 0.03 nM
[2]
  Kd: 0.1 ± 0.01 nM
[3]
  Kd: 0.2 ± 0.07 nM
[4]
  Kd: 0.24 ± 0.11 nM
[5]
  Kd: 0.1 ± 0.02 nM

Reference: PMC8026774 (Cellular and molecular neurobiology, 2020)
